This passage reports IC50 and Ki results from ChEMBL document CHEMBL1909046, “DrugMatrix in vitro pharmacology data”.

In experiment [1] the target is Matrix metalloproteinase-9 (Homo sapiens, UniProt P14780). Format: cell-based.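 Note: inhibition of isolated MMP-9 enzyme activity toward a synthetic peptide substrate, from the DrugMatrix protease screening panel.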
Experiment [2] concerns the target 5-hydroxytryptamine receptor 6 (Homo sapiens, UniProt P50406). The format is cell membranes, HeLa, Membrane. As to conditions: hela.
In experiment [3] the target is T1, Calcitonin receptor (Homo sapiens, UniProt P30988).
T1 sequence (P30988 whole entry): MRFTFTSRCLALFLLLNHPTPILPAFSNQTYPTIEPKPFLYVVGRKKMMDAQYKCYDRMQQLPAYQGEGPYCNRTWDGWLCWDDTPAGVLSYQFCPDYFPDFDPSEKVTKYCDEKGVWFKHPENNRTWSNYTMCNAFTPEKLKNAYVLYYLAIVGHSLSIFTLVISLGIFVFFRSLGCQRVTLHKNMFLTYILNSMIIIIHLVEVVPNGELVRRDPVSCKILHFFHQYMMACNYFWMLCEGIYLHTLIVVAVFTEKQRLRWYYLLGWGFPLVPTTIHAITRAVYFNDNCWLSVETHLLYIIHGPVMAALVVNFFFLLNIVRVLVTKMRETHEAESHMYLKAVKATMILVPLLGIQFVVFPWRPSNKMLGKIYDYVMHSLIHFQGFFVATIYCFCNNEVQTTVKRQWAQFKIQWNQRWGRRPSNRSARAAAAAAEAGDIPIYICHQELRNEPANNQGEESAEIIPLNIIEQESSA
The format is cell membranes, Membrane. As to conditions: t47d.

Experiment [4] has as its target C-C chemokine receptor type 5 (Homo sapiens, UniProt P51681). Format: cell membranes, Membrane. To be noted: hek293.
For experiment [5], the target named is T2, Alpha-2A adrenergic receptor (Homo sapiens, UniProt P08913).
T2 sequence (P08913 whole entry): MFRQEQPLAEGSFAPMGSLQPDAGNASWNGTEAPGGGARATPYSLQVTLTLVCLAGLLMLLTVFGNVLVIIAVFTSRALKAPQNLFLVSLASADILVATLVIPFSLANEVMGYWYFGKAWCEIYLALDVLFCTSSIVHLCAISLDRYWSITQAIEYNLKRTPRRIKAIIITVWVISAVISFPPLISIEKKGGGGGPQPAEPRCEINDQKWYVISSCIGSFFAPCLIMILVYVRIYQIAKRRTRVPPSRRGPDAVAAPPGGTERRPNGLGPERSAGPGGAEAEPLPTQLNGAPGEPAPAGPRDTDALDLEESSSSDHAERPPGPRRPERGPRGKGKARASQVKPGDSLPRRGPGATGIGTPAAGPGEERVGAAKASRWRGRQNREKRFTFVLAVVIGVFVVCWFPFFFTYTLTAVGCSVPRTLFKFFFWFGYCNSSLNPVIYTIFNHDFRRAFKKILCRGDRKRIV
Format: cell membranes, Sf9, Membrane.

The target of experiment [6] is T3, Alpha-1D adrenergic receptor (Homo sapiens, UniProt P25100).
T3 sequence (P25100 whole entry): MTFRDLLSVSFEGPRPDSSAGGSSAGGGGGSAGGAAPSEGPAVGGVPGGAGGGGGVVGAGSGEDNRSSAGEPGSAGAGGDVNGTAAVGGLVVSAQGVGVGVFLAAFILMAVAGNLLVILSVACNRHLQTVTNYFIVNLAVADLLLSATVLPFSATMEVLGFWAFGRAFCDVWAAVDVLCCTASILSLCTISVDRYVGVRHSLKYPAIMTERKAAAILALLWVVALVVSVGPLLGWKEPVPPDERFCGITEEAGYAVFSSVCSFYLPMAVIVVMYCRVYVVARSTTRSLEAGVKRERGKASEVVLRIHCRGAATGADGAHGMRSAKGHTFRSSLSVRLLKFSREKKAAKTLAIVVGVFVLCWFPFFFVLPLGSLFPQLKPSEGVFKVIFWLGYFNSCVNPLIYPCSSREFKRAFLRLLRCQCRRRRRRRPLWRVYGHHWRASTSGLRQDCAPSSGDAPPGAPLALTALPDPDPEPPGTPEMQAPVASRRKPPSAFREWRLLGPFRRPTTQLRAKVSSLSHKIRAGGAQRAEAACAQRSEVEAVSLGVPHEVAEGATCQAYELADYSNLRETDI
The format is cell membranes, HEK293, Membrane. To be noted: hek293.

Experiment [7] deals with Nitric oxide synthase 1 (Rattus norvegicus, UniProt P29476). The format is tissue-based, Cerebellum.
Note: in other assays of this panel Not Active means under 50% inhibition at 10 µM.

Matrix metalloproteinase-9, sequence (P14780 whole entry): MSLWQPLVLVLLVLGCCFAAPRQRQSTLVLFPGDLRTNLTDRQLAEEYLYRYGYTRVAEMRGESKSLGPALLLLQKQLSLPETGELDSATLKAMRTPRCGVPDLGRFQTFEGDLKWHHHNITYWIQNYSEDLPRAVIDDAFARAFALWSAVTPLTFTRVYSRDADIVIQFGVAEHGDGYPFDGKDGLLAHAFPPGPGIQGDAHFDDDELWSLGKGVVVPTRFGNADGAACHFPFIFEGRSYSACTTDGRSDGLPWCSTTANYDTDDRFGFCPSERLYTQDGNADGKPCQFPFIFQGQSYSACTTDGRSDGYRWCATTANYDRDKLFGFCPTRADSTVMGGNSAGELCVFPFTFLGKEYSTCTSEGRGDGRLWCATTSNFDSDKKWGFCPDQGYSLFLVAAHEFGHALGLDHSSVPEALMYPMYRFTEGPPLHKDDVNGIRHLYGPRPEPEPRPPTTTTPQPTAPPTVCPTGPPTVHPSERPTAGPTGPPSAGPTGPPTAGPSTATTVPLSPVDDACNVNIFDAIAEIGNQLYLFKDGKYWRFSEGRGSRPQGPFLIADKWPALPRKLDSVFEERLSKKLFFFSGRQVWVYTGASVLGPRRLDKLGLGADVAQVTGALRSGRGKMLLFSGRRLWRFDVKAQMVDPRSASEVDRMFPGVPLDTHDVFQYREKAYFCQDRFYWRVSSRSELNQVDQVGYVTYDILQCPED
5-hydroxytryptamine receptor 6, sequence (P50406 whole entry): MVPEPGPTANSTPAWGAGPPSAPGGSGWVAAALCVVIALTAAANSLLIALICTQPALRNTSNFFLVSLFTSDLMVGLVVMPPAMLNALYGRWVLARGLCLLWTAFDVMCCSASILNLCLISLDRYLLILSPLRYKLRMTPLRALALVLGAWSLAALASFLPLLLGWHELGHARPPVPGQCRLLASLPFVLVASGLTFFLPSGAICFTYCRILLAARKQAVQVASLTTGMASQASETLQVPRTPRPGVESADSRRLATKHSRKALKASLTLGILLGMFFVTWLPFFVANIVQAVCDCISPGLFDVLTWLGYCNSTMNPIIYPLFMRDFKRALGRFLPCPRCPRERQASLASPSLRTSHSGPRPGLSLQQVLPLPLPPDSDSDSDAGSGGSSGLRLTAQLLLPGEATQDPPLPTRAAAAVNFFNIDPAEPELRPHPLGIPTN
Nitric oxide synthase 1, sequence (P29476 whole entry): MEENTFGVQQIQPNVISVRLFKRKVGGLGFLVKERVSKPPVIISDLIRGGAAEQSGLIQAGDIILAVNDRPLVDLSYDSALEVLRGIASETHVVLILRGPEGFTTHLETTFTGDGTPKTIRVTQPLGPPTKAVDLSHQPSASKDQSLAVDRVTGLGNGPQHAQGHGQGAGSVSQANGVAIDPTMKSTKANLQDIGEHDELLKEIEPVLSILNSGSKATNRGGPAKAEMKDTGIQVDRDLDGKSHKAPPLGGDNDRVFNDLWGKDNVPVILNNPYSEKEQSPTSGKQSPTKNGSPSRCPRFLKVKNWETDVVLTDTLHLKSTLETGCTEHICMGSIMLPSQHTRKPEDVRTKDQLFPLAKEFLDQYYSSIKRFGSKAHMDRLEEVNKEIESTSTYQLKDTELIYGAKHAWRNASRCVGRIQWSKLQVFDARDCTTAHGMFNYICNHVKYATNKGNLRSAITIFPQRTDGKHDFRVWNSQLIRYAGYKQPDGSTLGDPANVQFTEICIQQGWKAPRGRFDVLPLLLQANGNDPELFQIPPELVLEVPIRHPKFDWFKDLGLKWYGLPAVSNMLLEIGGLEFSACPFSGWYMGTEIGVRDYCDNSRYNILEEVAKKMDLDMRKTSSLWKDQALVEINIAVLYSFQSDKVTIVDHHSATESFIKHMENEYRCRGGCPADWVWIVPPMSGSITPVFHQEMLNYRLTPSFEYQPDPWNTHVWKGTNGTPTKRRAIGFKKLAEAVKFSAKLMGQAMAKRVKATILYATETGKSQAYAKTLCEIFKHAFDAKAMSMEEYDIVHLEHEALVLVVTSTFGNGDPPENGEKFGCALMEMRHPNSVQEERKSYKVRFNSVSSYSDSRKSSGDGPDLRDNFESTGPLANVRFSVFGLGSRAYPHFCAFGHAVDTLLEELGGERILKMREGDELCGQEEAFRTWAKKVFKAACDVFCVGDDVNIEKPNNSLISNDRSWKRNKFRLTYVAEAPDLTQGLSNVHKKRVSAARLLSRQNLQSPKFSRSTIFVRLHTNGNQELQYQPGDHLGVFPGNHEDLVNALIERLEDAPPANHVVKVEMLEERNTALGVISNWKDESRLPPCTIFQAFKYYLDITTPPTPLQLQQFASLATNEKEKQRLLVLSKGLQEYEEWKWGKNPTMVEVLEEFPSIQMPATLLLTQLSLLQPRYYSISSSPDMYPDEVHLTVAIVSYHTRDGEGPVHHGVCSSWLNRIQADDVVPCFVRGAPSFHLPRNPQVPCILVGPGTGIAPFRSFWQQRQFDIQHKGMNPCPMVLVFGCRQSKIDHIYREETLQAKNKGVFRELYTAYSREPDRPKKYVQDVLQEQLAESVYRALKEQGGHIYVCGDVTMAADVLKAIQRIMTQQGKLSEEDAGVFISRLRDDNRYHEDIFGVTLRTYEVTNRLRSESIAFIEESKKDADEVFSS
C-C chemokine receptor type 5, sequence (P51681 whole entry): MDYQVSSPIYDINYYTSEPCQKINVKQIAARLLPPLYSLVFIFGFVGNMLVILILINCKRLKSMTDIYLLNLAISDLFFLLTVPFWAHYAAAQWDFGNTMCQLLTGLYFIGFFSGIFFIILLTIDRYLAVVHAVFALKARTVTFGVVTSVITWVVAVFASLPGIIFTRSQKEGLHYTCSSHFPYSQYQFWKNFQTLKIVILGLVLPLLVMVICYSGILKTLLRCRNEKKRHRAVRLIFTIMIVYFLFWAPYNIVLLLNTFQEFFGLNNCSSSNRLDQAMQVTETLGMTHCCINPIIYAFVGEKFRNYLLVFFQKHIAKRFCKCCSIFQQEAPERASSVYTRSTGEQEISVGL

Usually IC50 stands for the concentration needed to halve the response being measured. What is called Ki is the equilibrium dissociation constant of an inhibitor or competing ligand from its target. With `CCCCCCCCNC(C)C(O)c1ccc(SC(C)C)cc1` (stereo unspecified) [SULOCTIDIL], the IC50 entry in experiment [1] is “Not Active”; in experiment [2] it was “Not Active”; in experiment [3] it was “Not Active”; in experiment [4], “Not Active”; in experiment [5] (read-out: IC50) it was 2020 nM; in experiment [6] it was “Not Active”. Besides, the IC50 entry in experiment [7] is recorded as “Not Active”. Moreover, in experiment [5] (read-out: Ki), the Ki stood at 759 nM.

In the case of `O=c1[nH]c(=O)n(C2CCCO2)cc1F` (stereo unspecified) [TEGAFUR], the IC50 entry in experiment [1], in experiment [2], in experiment [3], in experiment [4], in experiment [5] (sf9) and in experiment [6] was “Not Active” each time. In experiment [7], the IC50 entry is listed as “Not Active”.

Turning to `CC(=N)S` [THIOACETAMIDE], the IC50 entry in experiment [1], in experiment [2], in experiment [3], in experiment [4], in experiment [5] (sf9) and in experiment [6] was “Not Active” throughout. In experiment [7], the IC50 result is “Not Active”.

Consider `Cc1ccc(C(=O)c2ccc(CC(=O)O)n2C)cc1` [TOLMETIN], for which the IC50 entry in experiment [1], in experiment [2], in experiment [3], in experiment [4], in experiment [5] (sf9) and in experiment [6] was “Not Active” in each case. Also, the IC50 result in experiment [7] is “Not Active”.

Consider `CC(=O)OCC(COC(C)=O)OC(C)=O` [TRIACETIN], for which the IC50 entry in experiment [1], in experiment [2], in experiment [3], in experiment [4], in experiment [5] (sf9) and in experiment [6] was “Not Active” in each case. Moreover, in experiment [7], the IC50 result was “Not Active”.

As for `CN1CCN(CCCN2c3ccccc3Sc3ccc(C(F)(F)F)cc32)CC1` [TRIFLUOPERAZINE], the 50% inhibitory concentration (IC50) result in experiment [1], in experiment [2], in experiment [3], in experiment [4], in experiment [5] (sf9) and in experiment [6] was “Not Active” throughout. Also, the IC50 result in experiment [7] was “Not Active”.

Turning to TRANSPLATIN, the IC50 result in experiment [1], in experiment [2], in experiment [3], in experiment [4], in experiment [5] (sf9) and in experiment [6] was “Not Active” each time. For the same compound, the IC50 entry in experiment [7] is given as “Not Active”. In addition, the Ki entry in experiment [1], in experiment [2], in experiment [3], in experiment [4], in experiment [5] (sf9) and in experiment [6] was “Not Active” in each case. Besides, the Ki entry in experiment [7] is given as “Not Active”.

As to ZIRCONIUM(IV) CHLORIDE, the IC50 entry in experiment [1], in experiment [2], in experiment [3], in experiment [4], in experiment [5] (sf9) and in experiment [6] was “Not Active” each time. Moreover, the IC50 result in experiment [7] was “Not Active”. The Ki entry in experiment [1], in experiment [2], in experiment [3], in experiment [4], in experiment [5] (sf9) and in experiment [6] was “Not Active” each time. Further, the Ki result in experiment [7] was “Not Active”.
